Entries after “also recorded” stand apart in the source; their conditions may differ.
How the values were obtained:
dermal CYP1A = experiment: Dermal microsomal CYP1A enzymatic activity (7-ethoxyresorufin-O-deethylase), inhibition or enhancement; details: for inhibitory effect on dermal CYP1A activity, in words: at certain concentration (1, 10 or 100 μM); for enhancing effect on dermal CYP1A activity, in words: at certain concentrations (1, 10 or 100 μM); for dermal CYP1A activity (% of control group): skin microsomes, mean of at least 3 repeats
Source text: (§1) Nude mice were sacrificed by decapitation.
(§2) The precipitate containing the microsomes was obtained.

CYP1A [1] = experiment: in vitro; details: nude, mouse
Source text: as §1, §2

liver CYP1A = experiment: Liver microsomal CYP1A enzymatic activity, inhibition or enhancement; details: for enhancing effect on liver CYP1A activity, in words / inhibitory effect on liver CYP1A activity, in words: at certain concentration (1, 10 or 100 μM); for liver CYP1A activity (% of control group): liver microsomes
Procedure: (§3) Nude mice were sacrificed by decapitation. The skin and liver were immediately removed and kept in ice bath or 4° C. […] Connective tissue, blood, and fat were carefully removed from the tissue. Excess water content was removed from the homogenized tissue by tissue papers before the tissue was weighed.
(§4) The suspension of homogenized tissue in potassium chloride solution was transferred into a Teflon pestle-glass homogenizer for homogenization for six (6) times. Then, potassium chloride solution was added into the homogenized suspension to bring the volume to about four (4) times of the homogenized suspension. The diluted suspension was 5 transferred into a centrifuge tube and centrifuged at 4° C., 9000 xg, for twenty (20) minutes. The supernatant containing microsomes from skin or liver tissue and other soluble substance were removed and the volume of the supernatant was brought up to four (4) times of the weight of the tissue by adding potassium chloride solution. The diluted supernatant was transferred into a centrifuge tube and centrifuged at 4° C., 100,000 xg, for one (1) hour (Beckman L8-80M). The precipitate containing the microsomes was obtained. Potassium chloride solution was added into the precipitate to bring the volume up to four (4) times of the weight of the tissue, and the suspension was centrifuged at 4° C., 100,000 xg for one (1) hour, to obtain the washed microsomes, which were stored at −78° C. in 0.1M KH2PO4-K2HPO4 buffer (pH=7.4).
(§5) The enzymatic activity of CYP1A was determined based on the activity of 7-ethoxyresorufin-O-deethylase (i.e., for CYP1A) and 7-methoxyresorufin-O-demethylase (i.e., CYP1A2). […] Except for the blank group, the reaction was triggered by adding 0.54 μM NADPH. In the test tube (16×100 mm), the reaction was carried out for ten (10) minutes at constant temperature (37° C.) with vibration and without light Methanol 2.5 ml was added into the reaction mixture to stop the reaction. Protein precipitate was removed from the reaction mixture by centrifuging the reaction mixture at 180 xg for ten (10) minutes. The supernatant was tested for florescent intensity with 550 nm as the excitation wavelength and 585 nm the emission wavelength. The florescent intensity was compared with 0.01 μM-0.1 μM standard Rhodamine B solution to obtain the reading of the CYP1A enzyme activity.

CYP1A [2] = experiment: as above; details: nude, mouse, liver microsomes, pH 7.8, probe 7-ethoxyresorufin
Procedure: as §3, §4, §5

[3] = pH 7.8, dermal CYP1A activity (% of control group)
[4] = pH 7.8, inhibition of dermal CYP1A activity

SMILES	inhibitory effect on dermal CYP1A activity, in words (dermal CYP1A)	enhancing effect on dermal CYP1A activity, in words (dermal CYP1A)	inhibition of dermal CYP1A activity (dermal CYP1A; compound 1 μM)	enhancing effect on liver CYP1A activity, in words (liver CYP1A)	activity at 10 min, 1 µM (CYP1A [2]) [%]	activity at 10 min, 10 µM (CYP1A [2]) [%]	activity at 10 min, 100 µM (CYP1A [2]) [%]	dermal CYP1A activity (% of control group) (dermal CYP1A; compound 1 μM) [%]	dermal CYP1A activity (% of control group) (dermal CYP1A; compound 10 μM) [%]	dermal CYP1A activity (% of control group) (dermal CYP1A; compound 100 μM) [%]	inhibitory effect on liver CYP1A activity, in words (liver CYP1A)	liver CYP1A activity (% of control group) (liver CYP1A; compound 1 μM) [%]	liver CYP1A activity (% of control group) (liver CYP1A; compound 10 μM) [%]	liver CYP1A activity (% of control group) (liver CYP1A; compound 100 μM) [%]	further results
C=C(C)C1CC=C(C)CC1 (single isomer, unassigned; (+)) [(+)-Limonene]	inhibition effects	enhancing effects	about 51%	–	–	–	–	–	–	–	–	–	–	–	–
CC(=O)OCCCc1ccccc1 [3-Phenyl propyl acetate, 3-phenylpropyl acetate]	–	–	–	enhancing effect; also recorded: most enhancing effect	151	143	157	–	–	–	–	–	–	–	activity at 10 min, 1 µM (CYP1A [1]; pH 7.8): 28.3%; activity at 10 min, 10 µM (CYP1A [1]; pH 7.8): 89.4%; activity at 10 min, 100 µM (CYP1A [1]; pH 7.8): 85%; inhibition at 10 min, 1 µM (CYP1A [1]; pH 7.8): ~72%; enhancing effect on liver CYP1A activity, in words (liver CYP1A; listed as 3-phenylpryl acetate): enhancing effect
Oc1cc(O)c2c(c1)O[C@H](c1ccc(O)c(O)c1)[C@@H](O)C2 [(+)-Catechin]	inhibition effects	enhancing effects	about 22%	enhancing effect	–	–	–	78.10	91.97	99.99	inhibitory effects	90.00	120.23	116.48	–
Oc1cc(O)c2c(c1)O[C@@H](c1ccc(O)c(O)c1)[C@@H](O)C2 [(+)-Epicatechin]	inhibition effects	enhancing effects	about 34%	enhancing effect	–	–	–	65.55	86.15	105.09	–	124.29	129.86	130.95	–
Oc1cc(O)c2c(c1)O[C@H](c1ccc(O)c(O)c1)[C@H](O)C2 [(−)-Epicatechin]	inhibition effects	enhancing effects; also recorded: strongest enhancing effect	–	enhancing effect; also recorded: most enhancing effect	–	–	–	85.69	121.77	129.82	–	133.54	139.91	147.44	enhancement of dermal CYP1A activity (dermal CYP1A; compound 10 μM): 22%; enhancement of dermal CYP1A activity (dermal CYP1A; compound 100 μM): about 30%; enhancement of dermal microsomal CYP1A activity (dermal CYP1A; concentration between about 10 μM and about 100 μM): at least 20%; enhancing effect on liver CYP1A activity (liver CYP1A; compound 1 μM): about 34%
O=c1cc(-c2ccccc2)oc2cc(O)c(O)c(O)c12 [Baicalein]	inhibition effects	–	–	enhancing effect	–	–	–	64.73	48.84	55.82	–	110.67	114.18	–	inhibition of dermal CYP1A activity (dermal CYP1A; compound 10 μM): about 47%
O=C(O)[C@H]1O[C@@H](Oc2cc3oc(-c4ccccc4)cc(=O)c3c(O)c2O)[C@H](O)[C@@H](O)[C@@H]1O [Baicalin]	inhibition effects	–	–	enhancing effect	–	–	–	90.14	82.85	75.91	inhibitory effects	106.19	90.79	106.06	inhibition of dermal CYP1A activity (dermal CYP1A; compound 100 μM): about 24%
C=CC(=C)CCC=C(C)C [Beta-Myrcene]	–	–	–	enhancing effect	82	98	100	–	–	–	inhibitory effects	–	–	–	activity at 10 min, 1 µM (CYP1A [1]; pH 7.8): 101%; activity at 10 min, 10 µM (CYP1A [1]; pH 7.8): 78.2%; activity at 10 min, 100 µM (CYP1A [1]; pH 7.8): 73.6%; inhibition at 10 min, 100 µM (CYP1A [1]; pH 7.8): ~26%
O=c1c(-c2ccc(O)cc2)coc2cc(O)ccc12 [Daidzein]	–	–	–	–	109	112	135	–	–	–	–	–	–	–	activity at 10 min, 1 µM (CYP1A [1]; [3]): 77.5%; activity at 10 min, 10 µM (CYP1A [1]; [3]): 71.7%; activity at 10 min, 100 µM (CYP1A [1]; [3]): 77.2%; inhibition at 10 min, 10 µM (CYP1A [1]; [4]): ~28%
O=C(O)c1cc(O)c(O)c(O)c1 [Gallic acid]	–	–	–	–	–	123	105	–	–	–	–	–	–	–	activity at 10 min, 1 µM (CYP1A [1]; [3]): 102%; activity at 10 min, 10 µM (CYP1A [1]; [3]): 107%; activity at 10 min, 100 µM (CYP1A [1]; [3]): 88.2%; inhibition at 10 min, 100 µM (CYP1A [1]; [4]): ~12%
